# Entries after “also recorded” stand apart in the source; their conditions may differ. Like-named read-outs stand apart in the source and are kept apart here.
# Columns and labels:
# [1] = target: T1, α-glucosidase (from Saccharomyces cerevisiae EC 3.2.1.20) (Saccharomyces cerevisiae, UniProt P53341); assay: biochemical
# T1 construct: purchased Sigma
# Experimental: The method described by Azizian et al. with some modifications was used to assess αglucosidase inhibitory activity of novel derivatives of phenyl carbamoyl methoxy thiosemicarbazone. The enzyme solution was prepared of αglucosidase (1 U/mL) in a […] phosphate buffer (pH: 6.8). The final volume of assay solution in the 96-well plate was 200 µl, which was prepared in the following order: 20 µl of the enzyme solution was used to obtain a final enzyme activity of […] per well. 20 µl of various concentrations of novel inhibitors (1000, 500, 250, 125, 62.5, 31.25, and 15.62 µM) and potassium phosphate buffer (135 µl, pH = 6.8). The 96-well plate was incubated for 10 min at 37 °C and pNPG as substrate (25 µl, 4 mM) was added to each well of the plate and was incubated again for 30 min at 37 °C. Finally, absorbance was measured at 405 nm using a spectrophotometer (BioTek ELx808, USA). […] The IC50 values for the tested inhibitors were calculated using Microsoft Excel 2016 software and non-linear regression analysis.
# [2] = MTT cytotoxicity assay on MDA-MB-453 cells; assay type: cell-based, human; settings: human, MDA-MB-453 cells (breast cancer cell line), 24 h, MTT, read-out: cell survival rate / cell viability; for viability at 24 h, 12.5 µM: MDA-MB-453, 12.5 µM; for viability at 24 h, 25 µM: MDA-MB-453, 25 µM; for viability at 24 h, 50 µM: MDA-MB-453, 50 µM; for viability at 24 h, 100 µM: MDA-MB-453, 100 µM
# Experimental: (§1) To evaluate the cytotoxic effects of novel derivatives of phenyl carbamoyl methoxy thiosemicarbazone, an MTT assay was conducted using the non-small cell lung carcinoma cell line A549 and the MDA-MB-453 human breast cancer cell line. Both cell lines were obtained from the Pasteur Institute in Iran, and the assay was performed following the method of Jelena et al.[15], with some minor modifications.
# (§2) In short, 100 µl of A549 cells (1 × 10^5) cultured in DMEM (Dulbecco’s modified Eagle’s medium) enriched with 10% foetal bovine serum (FBS) and 100 U/mL penicillin. […] streptomycin were added to each well in a 96-well plate, and they were incubated at 37 °C and 5% CO2 for 24 h. Also, 100 µl of MDA-MB-453 cells (1 × 10^5) cultured in RPMI enriched with 10% FBS and 100 U/mL penicillin and […] streptomycin were added to each well in a 96-well plate and were incubated at 37 °C and 5% CO2 for 24 h. Subsequently, the medium in both cell lines was replaced with different concentrations (12.5, 25, 50, and 100 µM) of two derivatives of 7e and 7 g, and plates were incubated at 37 °C and 5% CO2 for 24 h. After that, 10 µl of MTT (3–4, 5 dimethyl thiazol- 2 yl)-2, 5- diphenyl tetrazolium bromide) (Sigma USA) dye ([…] in PBS) was added to each well and incubated for 4 h at 37 °C. After 4 h, the solution was removed from the cells, and 100 µl of DMSO (dimethyl sulfoxide) was added to the wells. The optical density of each well was measured at 570 nm using an ELISA reader (BioTek ELx808, USA). The wells containing more cells have a higher optical density (OD) than those with fewer cells. Therefore, the wells with more cells can be identified using the following equation and compared with the control sample. Toxicity%=1−mean OD of sample/mean OD of control∗100 viability%=100−Toxicity %
# (§3) PBS buffer and 1% Triton X-100 were negative and positive controls, respectively. All tests were conducted in triplicate.
# [3] = MTT cytotoxicity assay on A549 cells; assay type: cell-based; settings: human, A549 cells (non-small cell lung carcinoma cell line), 24 h, MTT, read-out: cell viability rate; for viability at 24 h, 12.5 µM: A549, 12.5 µM; for viability at 24 h, 25 µM: A549, 25 µM; for viability at 24 h, 50 µM: A549, 50 µM; for viability at 24 h, 100 µM: A549, 100 µM
# Experimental: as §1, §2, §3
# [4] = system: MDA-MB-453 human breast cancer cell line; assay: MTT cytotoxicity assay on MDA-MB-453 cells; assay type: cell-based; settings: MDA-MB-453
# Experimental: as §1, §2, §3
# [5] = system: non-small cell lung carcinoma cell line A549; assay: MTT cytotoxicity assay on A549 cells; assay type: cell-based; settings: A549
# Experimental: as §1, §2, §3
# α-glucosidase = target: T2, α-glucosidase (Saccharomyces cerevisiae, UniProt P53341); assay: Kinetic study of α-glucosidase inhibition (Lineweaver-Burk and secondary plots); assay type: biochemical
# T2 construct: purchased Sigma
# T2 sequence (P53341 whole entry): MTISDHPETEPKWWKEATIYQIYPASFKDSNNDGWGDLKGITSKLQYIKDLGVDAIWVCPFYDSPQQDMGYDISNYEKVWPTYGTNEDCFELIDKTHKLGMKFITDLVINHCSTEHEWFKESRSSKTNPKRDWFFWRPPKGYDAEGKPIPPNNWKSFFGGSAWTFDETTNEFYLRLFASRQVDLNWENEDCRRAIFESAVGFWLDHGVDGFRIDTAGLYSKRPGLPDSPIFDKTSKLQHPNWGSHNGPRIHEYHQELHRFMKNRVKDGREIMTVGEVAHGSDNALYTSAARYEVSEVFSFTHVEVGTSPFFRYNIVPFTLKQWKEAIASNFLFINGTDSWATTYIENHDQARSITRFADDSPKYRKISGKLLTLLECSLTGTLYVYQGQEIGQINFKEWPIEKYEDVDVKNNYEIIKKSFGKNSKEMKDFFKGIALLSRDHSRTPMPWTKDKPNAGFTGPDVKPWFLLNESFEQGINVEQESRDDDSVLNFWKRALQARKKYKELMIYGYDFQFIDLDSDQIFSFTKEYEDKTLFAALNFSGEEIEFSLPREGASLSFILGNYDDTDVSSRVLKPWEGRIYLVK
# Experimental: Kinetic studies were conducted to determine the inhibition mechanism of the strongest novel inhibitor with the lowest IC50. […] The experimental inhibitor constant[42] was made using secondary plots.
# This was achieved using Lineweaver–Burk plots to determine the type of inhibition mechanism and the Km value. […] This mode of inhibition is particularly advantageous for antidiabetic therapy, as it facilitates glucose-dependent modulation of enzyme activity. […] These attributes highlight the promise of 7e as a therapeutic agent for managing postprandial glucose levels in individuals with type 2 DM.
# [6] = pNPG substrate, pH 6.8, 37 °C, mean ± SD, n = 3, read-out: IC50 (µM) ± SD, α-glucosidase inhibitory activity
# T1 sequence (P53341 whole entry): as above
compound,measurement,setting,value
2-{4-[(Z)-[(carbamothioylamino)imino]methyl]-2-methoxyphenoxy}-N-(4-methylphenyl) acetamide [Compound 7i],IC50,[1]; [6],125.9 ± 0.016 µM
"COc1cc(/C=N\NC(N)=S)ccc1OCC(=O)Nc1ccccc1Cl [7 g, 2-{4-[(Z)-[(carbamothioylamino)imino]methyl]-2-methoxyphenoxy}-N-(2-chlorophenyl) acetamid]","viability at 24 h, 12.5 µM",[2],89.6%
same,"viability at 24 h, 25 µM",[2],66.7%
same,"viability at 24 h, 50 µM",[2],50.6%
same,"viability at 24 h, 100 µM",[2],41%
same,IC50,[1],62.2 ± 0.411 µM
same,"viability at 24 h, 12.5 µM",[3],96.2%
same,"viability at 24 h, 25 µM",[3],72.4%
same,"viability at 24 h, 50 µM",[3],57.3%
same,"viability at 24 h, 100 µM",[3],27.7%
"COc1cc(/C=N\NC(N)=S)ccc1OCC(=O)Nc1ccccc1 [Compound 7a, 2-{4-[(Z)-[(carbamothioylamino)imino]methyl]-2-methoxyphenoxy}-N-phenylacetamide]",IC50,[1],257 ± 0.491 µM
"COc1cc(/C=N\NC(N)=S)ccc1OCC(=O)Nc1ccc(C)cc1 [Compound 7b, 2-{4-[(Z)-[(carbamothioylamino)imino]methyl]-2-methoxyphenoxy}-N-(4-methylphenyl) acetamide]",IC50,[1]; [6],151.18 ± 0.02 µM
"CCc1ccc(NC(=O)COc2ccc(/C=N\NC(N)=S)cc2OC)cc1 [Compound 7c, 2-{4-[(Z)-[(carbamothioylamino)imino]methyl]-2-methoxyphenoxy}-N-(4-ethylphenyl) acetamide]",IC50,[1]; [6],95.99 ± 0.273 µM
COc1cc(C=NNC(N)=S)ccc1OCC(=O)NCc1ccccc1 [Compound 7d],IC50,[1],216.42 ± 0.025 µM
"COc1cc(/C=N\NC(N)=S)ccc1OCC(=O)Nc1cccc(C)c1 [Compound 7e, 2-{4-[(Z)-[(carbamothioylamino)imino]methyl]-2-methoxyphenoxy}-N-(3-methylphenyl) acetamide]","viability at 24 h, 12.5 µM",[2],97.4%
same,"viability at 24 h, 25 µM",[2],74.7%
same,"viability at 24 h, 50 µM",[2],66.3%
same,"viability at 24 h, 100 µM",[2],57.2%
same,cytotoxic activity (in words),[4],did not possess important cytotoxic activity; also recorded: low cytotoxicity
same,IC50,[1],23.95 ± 0.038 µM
same,"viability at 24 h, 12.5 µM",[3],95.5%
same,"viability at 24 h, 25 µM",[3],84.3%
same,"viability at 24 h, 50 µM",[3],75.2%
same,"viability at 24 h, 100 µM",[3],63.7%
same,cytotoxic activity (in words),[5],did not possess important cytotoxic activity; also recorded: low cytotoxicity
same,Ki,α-glucosidase,34.8 µM
same,Type of inhibition mechanism,α-glucosidase; Lineweaver–Burk plots,competitive inhibitor
same,Vmax with increasing inhibitor concentration,α-glucosidase; inhibitor 0-250 µM,remained unchanged
"COc1cc(/C=N\NC(N)=S)ccc1OCC(=O)Nc1cccc([N+](=O)[O-])c1 [Compound 7f, 2-{4-[(Z)-[(carbamothioylamino)imino]methyl]-2-methoxyphenoxy}-N-(3-nitrophenyl) acetamide]",IC50,[1],328.17 ± 0.083 µM
"COc1cc(/C=N\NC(N)=S)ccc1OCC(=O)Nc1ccc(Br)cc1 [Compound 7h, N-(4-bromophenyl)-2-{4-[(Z)-[(carbamothioylamino)imino]methyl]-2-methoxyphenoxy} acetamide]",IC50,[1]; [6],573.67 ± 0.043 µM
"COc1cc(/C=N\NC(N)=S)ccc1OCC(=O)Nc1cccc(C)c1C [Compound 7j, 2-{4-[(Z)-[(carbamothioylamino)imino]methyl]-2-methoxyphenoxy}-N-(2,3-dimethylphenyl) acetamide]",IC50,[1],103.91 ± 0.028 µM
"COc1cc(/C=N\NC(N)=S)ccc1OCC(=O)Nc1ccc(Cl)cc1 [Compound 7k, 2-{4-[(Z)-[(carbamothioylamino)imino]methyl]-2-methoxyphenoxy}-N-(4-chlorophenyl) acetamide]",IC50,[1],442.41 ± 0.009 µM
"COc1cc(/C=N\NC(N)=S)ccc1OCC(=O)Nc1ccc(C)cc1C [Compound 7l, 2-{4-[(Z)-[(carbamothioylamino)imino]methyl]-2-methoxyphenoxy}-N-(2,4-dimethylphenyl) acetamide]",IC50,[1],122.72 ± 0.098 µM
"COc1ccc(NC(=O)COc2ccc(/C=N\NC(N)=S)cc2OC)cc1 [Compound 7m, 2-{4-[(Z)-[(carbamothioylamino)imino]methyl]-2-methoxyphenoxy}-N-(4-methoxyphenyl) acetamide]",IC50,[1]; [6],436.5 ± 0.062 µM
"COc1cc(/C=N\NC(N)=S)ccc1OCC(=O)Nc1ccccc1F [Compound 7n, 2-{4-[(Z)-[(carbamothioylamino)imino]methyl]-2-methoxyphenoxy}-N-(2-fluorophenyl) acetamide]",IC50,[1],95.65 ± 0.056 µM

# Reference: article PMC12587786, “In vitro α-glucosidase inhibition, molecular dynamics and docking study of phenyl carbamoyl methoxy thiosemicarbazone derivatives as potential anti-diabetic agents” (Journal of Enzyme Inhibition and Medicinal Chemistry, 2025)
